Measured values published in patent US6583147B1, “Pyrazolopyrimidinone derivatives for the treatment of impotence” (Dong A Pharm Co., Ltd., priority 1998, dated 2003).

molecular target: T1, Phosphodiesterase-5 enzyme (PDE 5) (Homo sapiens, UniProt O76074); test: Test for phosphodiesterase-5 (PDE 5) activity; type: biochemical; conditions: PDE 5 fraction from human corpus cavernosal tissues
T1 construct: separated by HPLC (Mono Q anion exchange column) with concentration gradient of 0-500 mM NaCl to elute PDE isozymes; from tissue; host or cells: human corpus cavernosal tissue

Compared with `CCCc1nn(C)c2c(=O)[nH]c(-c3cc(S(=O)(=O)NCCC4CCCN4C)ccc3OCC)nc12` (stereo not shown) [Example 67], `CCCc1nn(C)c2c(=O)[nH]c(-c3cc(S(=O)(=O)NCC4CCCN4C)ccc3OCC)nc12` (stereo not shown) [Example 55] is 1.6-fold higher in IC50: 63 nM for the first, 103 nM for the second. The first is the more potent here.

test system: rats; test: Penile erection test using rats; type: in vivo, rat; conditions: oral single dose 10 mg/kg in 0.5% methyl cellulose, observed for 2 hours

Going from `CCCc1nn(C)c2c(=O)[nH]c(-c3cc(S(=O)(=O)NCCC4CCCN4C)ccc3OCC)nc12` (stereo not shown) [Example 67] to `CCCc1nn(C)c2c(=O)[nH]c(-c3cc(S(=O)(=O)NCC4CCCN4C)ccc3OCC)nc12` (stereo not shown) [Example 55], the “PEI (penile erection index)” value rises from 75.0 ± 61.2 to 350.0 ± 173.2.

`CCCc1nn(C)c2c(=O)[nH]c(-c3cc(S(=O)(=O)Nc4ccccn4)ccc3OCC)nc12` [Example 42] and `CCCc1nn(C)c2c(=O)[nH]c(-c3cc(S(=O)(=O)NCc4ccccn4)ccc3OCC)nc12` [Example 50] are within error of each other in “PEI (penile erection index)” value: 33.3 ± 57.7 for the first, 44.3 ± 38.5 for the second.

`CCCc1nn(C)c2c(=O)[nH]c(-c3cc(S(=O)(=O)Nc4ccccc4)ccc3OCC)nc12` [Example 25] and `CCCc1nn(C)c2c(=O)[nH]c(-c3cc(S(=O)(=O)Nc4ccc(C)cc4)ccc3OCC)nc12` [Example 27] are within error of each other in “PEI (penile erection index)” value: 44.4 ± 38.5 for the first, 66.7 ± 66.7 for the second.

`CCCc1nn(C)c2c(=O)[nH]c(-c3cc(S(=O)(=O)NCC4CCCO4)ccc3OCC)nc12` (stereo not shown) [Example 21] and `CCCc1nn(C)c2c(=O)[nH]c(-c3cc(S(=O)(=O)NC4CCC4)ccc3OCC)nc12` [Example 17] are within error of each other in “PEI (penile erection index)” value: 44.4 ± 38.5 for the first, 66.7 ± 66.7 for the second.

`CCOc1ccc(S(=O)(=O)NC2CC2)cc1-c1nc2c(CC(C)C)nn(C)c2c(=O)[nH]1` [Example 15] and `CCOc1ccc(S(=O)(=O)NC2CCCCC2)cc1-c1nc2c(CC(C)C)nn(C)c2c(=O)[nH]1` [Example 20] are within error of each other in “PEI (penile erection index)” value: 111.1 ± 101.8 for the first, 266.7 ± 57.7 for the second.

`CCCc1nn(C)c2c(=O)[nH]c(-c3cc(S(=O)(=O)Nc4cc(C)cc(C)c4)ccc3OCC)nc12` [Example 32] and `CCCc1nn(C)c2c(=O)[nH]c(-c3cc(S(=O)(=O)NC(C)(C)C)ccc3OCC)nc12` [Example 12] are within error of each other in “PEI (penile erection index)” value: 66.7 ± 66.7 for the first, 22.2 ± 38.5 for the second.

First: CCCc1nn(C)c2c(=O)[nH]c(-c3cc(S(=O)(=O)NC4CCCC4)ccc3OCC)nc12 [Example 18]
Second: CCCOc1ccc(S(=O)(=O)NC2CC2)cc1-c1nc2c(CCC)nn(C)c2c(=O)[nH]1 [Example 16]
The “PEI (penile erection index)” value of the first is lower: 44.4 ± 38.5 for the first, 100 ± 0 for the second.

`CCOc1ccc(S(=O)(=O)Nc2ccc(C(C)(C)C)cc2)cc1-c1nc2c(CC(C)C)nn(C)c2c(=O)[nH]1` [Example 30] and `CCOc1ccc(S(=O)(=O)NC(C)C)cc1-c1nc2c(CC(C)C)nn(C)c2c(=O)[nH]1` [Example 4] are the same in “PEI (penile erection index)” value: 133.3 ± 57.7 for the first, 133.3 ± 57.7 for the second.

Going from `CCCc1nn(C)c2c(=O)[nH]c(-c3cc(S(=O)(=O)NC(CC)CC)ccc3OCC)nc12` [Example 11] to `CCCc1nn(C)c2c(=O)[nH]c(-c3cc(S(=O)(=O)NCc4ccncc4)ccc3OCC)nc12` [Example 43], the “PEI (penile erection index)” value falls from 100 ± 0.0 to 11.1 ± 19.3.

With `CCCc1nn(CC)c2c(=O)[nH]c(-c3cc(S(=O)(=O)NCc4ccncc4)ccc3OCC)nc12` [Example 45] the “PEI (penile erection index)” value was 22.2 ± 38.5.

`CCCc1nn(C)c2c(=O)[nH]c(-c3cc(S(=O)(=O)NCCC4CCCN4C)ccc3OCC)nc12` (stereo not shown) [Example 67] and `CCCc1nn(C)c2c(=O)[nH]c(-c3cc(S(=O)(=O)NCC4CCCN4C)ccc3OCC)nc12` (stereo not shown) [Example 55] are within error of each other in “genital grooming (number of genital groomings)” value (from here on “genital grooming”): 1.8 ± 1.5 for the first, 3.8 ± 1.5 for the second.

`CCCc1nn(C)c2c(=O)[nH]c(-c3cc(S(=O)(=O)Nc4ccccn4)ccc3OCC)nc12` [Example 42] and `CCCc1nn(C)c2c(=O)[nH]c(-c3cc(S(=O)(=O)NCc4ccccn4)ccc3OCC)nc12` [Example 50] are within error of each other in “genital grooming” value: 1.3 ± 1.5 for the first, 1.0 ± 0.0 for the second.

`CCCc1nn(C)c2c(=O)[nH]c(-c3cc(S(=O)(=O)Nc4ccccc4)ccc3OCC)nc12` [Example 25] and `CCCc1nn(C)c2c(=O)[nH]c(-c3cc(S(=O)(=O)Nc4ccc(C)cc4)ccc3OCC)nc12` [Example 27] are within error of each other in “genital grooming” value: 2.0 ± 0.0 for the first, 2.7 ± 1.2 for the second.

`CCCc1nn(C)c2c(=O)[nH]c(-c3cc(S(=O)(=O)NCC4CCCO4)ccc3OCC)nc12` (stereo not shown) [Example 21] and `CCCc1nn(C)c2c(=O)[nH]c(-c3cc(S(=O)(=O)NC4CCC4)ccc3OCC)nc12` [Example 17] are within error of each other in “genital grooming” value: 2.3 ± 1.5 for the first, 1.0 ± 1.0 for the second.

Going from `CCOc1ccc(S(=O)(=O)NC2CC2)cc1-c1nc2c(CC(C)C)nn(C)c2c(=O)[nH]1` [Example 15] to `CCOc1ccc(S(=O)(=O)NC2CCCCC2)cc1-c1nc2c(CC(C)C)nn(C)c2c(=O)[nH]1` [Example 20], the “genital grooming” value rises from 0.7 ± 0.6 to 2.3 ± 0.6.

`CCCc1nn(C)c2c(=O)[nH]c(-c3cc(S(=O)(=O)Nc4cc(C)cc(C)c4)ccc3OCC)nc12` [Example 32] and `CCCc1nn(C)c2c(=O)[nH]c(-c3cc(S(=O)(=O)NC(C)(C)C)ccc3OCC)nc12` [Example 12] are within error of each other in “genital grooming” value: 1.3 ± 1.5 for the first, 0.3 ± 0.6 for the second.

`CCCc1nn(C)c2c(=O)[nH]c(-c3cc(S(=O)(=O)NC4CCCC4)ccc3OCC)nc12` [Example 18] and `CCCOc1ccc(S(=O)(=O)NC2CC2)cc1-c1nc2c(CCC)nn(C)c2c(=O)[nH]1` [Example 16] are within error of each other in “genital grooming” value: 1.3 ± 0.6 for the first, 1.7 ± 0.6 for the second.

`CCOc1ccc(S(=O)(=O)Nc2ccc(C(C)(C)C)cc2)cc1-c1nc2c(CC(C)C)nn(C)c2c(=O)[nH]1` [Example 30] and `CCOc1ccc(S(=O)(=O)NC(C)C)cc1-c1nc2c(CC(C)C)nn(C)c2c(=O)[nH]1` [Example 4] are the same in “genital grooming” value: 2.3 ± 0.6 for the first, 2.3 ± 1.2 for the second.

`CCCc1nn(C)c2c(=O)[nH]c(-c3cc(S(=O)(=O)NC(CC)CC)ccc3OCC)nc12` [Example 11] and `CCCc1nn(C)c2c(=O)[nH]c(-c3cc(S(=O)(=O)NCc4ccncc4)ccc3OCC)nc12` [Example 43] are within error of each other in “genital grooming” value: 2.7 ± 2.1 for the first, 0.7 ± 0.6 for the second.

With `CCCc1nn(CC)c2c(=O)[nH]c(-c3cc(S(=O)(=O)NCc4ccncc4)ccc3OCC)nc12` [Example 45] the “genital grooming” value was 0.7 ± 1.2.
